# Measured values: ChEMBL document CHEMBL3044783, “Effects of pyrrolizidine alkaloids on the performance of plant-parasitic and free-living nematodes” (Pest Manag Sci, 2009)
# Calls of active or inactive are those of the source. The calls are words filed in the database; no cut-off is given here.
# Experiments:
# Meloidogyne incognita [1] = assay: Nematicidal activity against juvenile stage of Meloidogyne incognita (root-knot nematode) assessed as inhibition of mobility incubated for 168 hr followed by compound wash out measured after 24 hr; format: functional
# Heterodera schachtii [2] = assay: Nematicidal activity against juvenile stage of Heterodera schachtii assessed as inhibition of mobility incubated for 168 hr followed by compound wash out measured after 24 hr; format: functional
# Heterodera schachtii [3] = assay: Nematicidal activity against juvenile stage of Heterodera schachtii assessed as inhibition of mobility after 20 hr; format: functional
# Heterodera schachtii [4] = assay: Nematicidal activity against juvenile stage of Heterodera schachtii assessed as inhibition of mobility after 168 hr; format: functional
# Meloidogyne incognita [5] = assay: Nematicidal activity against juvenile stage of Meloidogyne incognita (root-knot nematode) assessed as inhibition of mobility after 20 hr; format: functional
# Meloidogyne incognita [6] = assay: Nematicidal activity against juvenile stage of Meloidogyne incognita (root-knot nematode) assessed as inhibition of mobility after 168 hr; format: functional
# [7] = Stability of the compound assessed as apperance of new pyrrolizidine alkaloids at 5 mg/mL after 24 hr by thin layer chromatographic analysis under cold temperature; format: physicochemical
# [8] = Stability of the compound assessed as apperance of new pyrrolizidine alkaloids at 5 mg/mL after 166 hr by thin layer chromatographic analysis under cold temperature; format: physicochemical
# Meloidogyne incognita [9] = assay: Repellent activity against juvenile stage of Meloidogyne incognita (root-knot nematode) at 1 mg/mL after 40 hr by stereomicroscopic analysis (reference value: 51%); format: functional
# [10] = Stability of the compound assessed as apperance of new pyrrolizidine alkaloids at 5 mg/mL after 24 hr by thin layer chromatographic analysis under hot temperature; format: physicochemical
# Rhabditis sp. [11] = assay: Repellent activity against juvenile stage of Rhabditis sp. at 0.1 mg/mL after 40 hr by stereomicroscopic analysis (reference value: 50%); format: functional
# Rhabditis sp. [12] = assay: Repellent activity against juvenile stage of Rhabditis sp. at 1 mg/mL after 20 hr by stereomicroscopic analysis (reference value: 48%); format: functional
# Rhabditis sp. [13] = assay: Nematicidal activity against juvenile stage of Rhabditis sp. assessed as inhibition of mobility after 168 hr; format: functional
# Rhabditis sp. [14] = assay: Repellent activity against juvenile stage of Rhabditis sp. at 1 mg/mL after 40 hr by stereomicroscopic analysis (reference value: 50%); format: functional
# Rhabditis sp. [15] = assay: Repellent activity against juvenile stage of Rhabditis sp. at 0.1 mg/mL after 20 hr by stereomicroscopic analysis (reference value: 48%); format: functional
# [16] = Stability of the compound assessed as apperance of pyrroles at 5 mg/mL after 24 to 168 hr by thin layer chromatographic analysis under UV light and hot temperature; format: physicochemical
# [17] = Stability of the compound assessed as conversion of free base to N-oxide at 5 mg/mL after 24 to 168 hr by thin layer chromatographic analysis under hot temperature; format: physicochemical
# [18] = Stability of the compound assessed as apperance of pyrroles at 5 mg/mL after 24 hr by thin layer chromatographic analysis under hot temperature; format: physicochemical
# Meloidogyne incognita [19] = assay: Repellent activity against juvenile stage of Meloidogyne incognita (root-knot nematode) at 0.1 mg/mL after 20 hr by stereomicroscopic analysis (reference value: 50%); format: functional
# [20] = system: Phasmarhabditis hermaphrodita; assay: Nematicidal activity against juvenile stage of Phasmarhabditis hermaphrodita of assessed as inhibition of mobility after 168 hr; format: functional
# Meloidogyne incognita [21] = assay: Ovicidal activity against Meloidogyne incognita (root-knot nematode) assessed as egg hatching at 1 mg/mL after 336 hr (reference value: 54%); format: functional
# [22] = Stability of the compound assessed as conversion of free base to N-oxide at 5 mg/mL after 24 to 168 hr by thin layer chromatographic analysis under cold temperature; format: physicochemical
# Pratylenchus penetrans [23] = assay: Nematicidal activity against juvenile stage of Pratylenchus penetrans assessed as inhibition of mobility after 20 hr; format: functional
# Meloidogyne incognita [24] = assay: Ovicidal activity against Meloidogyne incognita (root-knot nematode) assessed as egg hatching at 1 mg/mL after 24 hr (reference value: 3%); format: functional
# [25] = Stability of the compound assessed as apperance of pyrroles at 5 mg/mL after 24 to 168 hr by thin layer chromatographic analysis under UV light and cold temperature; format: physicochemical
# Meloidogyne incognita [26] = assay: Repellent activity against juvenile stage of Meloidogyne incognita (root-knot nematode) at 0.1 mg/mL after 40 hr by stereomicroscopic analysis (reference value: 51%); format: functional
# Meloidogyne incognita [27] = assay: Repellent activity against juvenile stage of Meloidogyne incognita (root-knot nematode) at 1 mg/mL after 20 hr by stereomicroscopic analysis (reference value: 50%); format: functional
# [28] = Stability of the compound assessed as conversion of free base to N-oxide at 5 mg/mL after 24 to 168 hr by thin layer chromatographic analysis under UV light and hot temperature; format: physicochemical
# Rhabditis sp. [29] = assay: Nematicidal activity against juvenile stage of Rhabditis sp. assessed as inhibition of mobility after 20 hr; format: functional, organism-based
# [30] = system: Phasmarhabditis hermaphrodita; assay: Nematicidal activity against juvenile stage of Phasmarhabditis hermaphrodita of assessed as inhibition of mobility after 20 hr; format: functional, organism-based
# [31] = Stability of the compound assessed as apperance of pyrroles at 5 mg/mL after 166 hr by thin layer chromatographic analysis under hot temperature; format: physicochemical
# [32] = Stability of the compound assessed as conversion of free base to N-oxide at 5 mg/mL after 24 to 168 hr by thin layer chromatographic analysis under UV light and cold temperature; format: physicochemical
# [33] = Stability of the compound assessed as apperance of new pyrrolizidine alkaloids at 5 mg/mL after 24 to 168 hr by thin layer chromatographic analysis under UV light and hot temperature; format: physicochemical
# Pratylenchus penetrans [34] = assay: Nematicidal activity against juvenile stage of Pratylenchus penetrans assessed as inhibition of mobility after 168 hr; format: functional
# [35] = Stability of the compound assessed as apperance of new pyrrolizidine alkaloids at 5 mg/mL after 166 hr by thin layer chromatographic analysis under hot temperature; format: physicochemical
# Pratylenchus penetrans [36] = assay: Nematicidal activity against juvenile stage of Pratylenchus penetrans assessed as inhibition of mobility incubated for 168 hr followed by compound wash out measured after 24 hr; format: functional
# [37] = Stability of the compound assessed as apperance of new pyrrolizidine alkaloids at 5 mg/mL after 24 to 168 hr by thin layer chromatographic analysis under UV light and cold temperature; format: physicochemical
# Rhabditis sp. [38] = assay: Nematicidal activity against juvenile stage of Rhabditis sp. assessed as reduction of nematode development at 0.01 mg/mL after 72 hr by stereomicroscopic analysis (reference value: 62%); format: functional; set-up: scale not given: the % may be the effect or the level left
# Rhabditis sp. [39] = assay: Nematicidal activity against juvenile stage of Rhabditis sp. assessed as reduction of fecundity at 0.1 mg/mL after 72 hr by stereomicroscopic analysis relative to untreated control; format: functional, organism-based
# Rhabditis sp. [40] = assay: Nematicidal activity against juvenile stage of Rhabditis sp. assessed as reduction of nematode development at 1 mg/mL after 72 hr by stereomicroscopic analysis (reference value: 62%); format: functional; set-up: scale not given: the % may be the effect or the level left
# Rhabditis sp. [41] = assay: Nematicidal activity against juvenile stage of Rhabditis sp. assessed as reduction of nematode development at 0.1 mg/mL after 72 hr by stereomicroscopic analysis (reference value: 62%); format: functional; set-up: scale not given: the % may be the effect or the level left
# Rhabditis sp. [42] = assay: Nematicidal activity against juvenile stage of Rhabditis sp. assessed as reduction of fecundity at 0.01 mg/mL after 72 hr by stereomicroscopic analysis relative to untreated control; format: functional, organism-based
compound,measurement,setting,value
C/C=C(/C)C(=O)O[C@H]1CCN2CC=C(COC(=O)[C@](O)([C@H](C)OC)C(C)(C)O)[C@H]12 [LASIOCARPINE],MIC50,Meloidogyne incognita [1],1000 µg/mL
same,MIC50,Heterodera schachtii [2],1000 µg/mL
same,MIC50,Heterodera schachtii [3],inactive
same,MIC50,Heterodera schachtii [4],3800 µg/mL
same,MIC50,Meloidogyne incognita [5],inactive
same,MIC50,Meloidogyne incognita [6],500 µg/mL
C[C@H]1C(=O)O[C@@H]2CCN3CC=C(COC(=O)[C@](C)(O)[C@]1(C)O)[C@H]23 [MONOCROTALINE],MIC50,Meloidogyne incognita [1],400 µg/mL
same,Stability,[7],Stable
same,MIC50,Heterodera schachtii [2],1700 µg/mL
same,Stability,[8],Unstable
same,Repellency,Meloidogyne incognita [9],52%
same,Stability,[10],Stable
same,Repellency,Rhabditis sp. [11],49%
same,Repellency,Rhabditis sp. [12],92%
same,MIC50,Rhabditis sp. [13],150 µg/mL
same,Repellency,Rhabditis sp. [14],93%
same,Repellency,Rhabditis sp. [15],45%
same,MIC50,Heterodera schachtii [3],inactive
same,Stability,[16],Unstable
same,Stability,[17],Stable
same,Stability,[18],Stable
same,Repellency,Meloidogyne incognita [19],51%
same,MIC50,[20],inactive
same,Activity,Meloidogyne incognita [21],29%
same,MIC50,Heterodera schachtii [4],2000 µg/mL
same,Stability,[22],Stable
same,MIC50,Pratylenchus penetrans [23],25900 µg/mL
same,Activity,Meloidogyne incognita [24],2%
same,Stability,[25],Unstable
same,MIC50,Meloidogyne incognita [5],31500 µg/mL
same,Repellency,Meloidogyne incognita [26],52%
same,Repellency,Meloidogyne incognita [27],55%
same,Stability,[28],Stable
same,MIC50,Rhabditis sp. [29],inactive
same,MIC50,Meloidogyne incognita [6],300 µg/mL
same,MIC50,[30],inactive
same,Stability,[31],Unstable
same,Stability,[32],Stable
same,Stability,[33],Unstable
same,MIC50,Pratylenchus penetrans [34],1800 µg/mL
same,Stability,[35],Unstable
same,MIC50,Pratylenchus penetrans [36],5800 µg/mL
same,Stability,[37],Unstable
CO[C@H](C)[C@](O)(C(=O)OCC1=CCN2CC[C@H](O)[C@@H]12)C(C)C [HELIOTRINE],MIC50,Meloidogyne incognita [1],800 µg/mL
same,MIC50,Heterodera schachtii [2],1100 µg/mL
same,MIC50,Rhabditis sp. [13],100 µg/mL
same,MIC50,Heterodera schachtii [3],inactive
same,Activity,Rhabditis sp. [38],58%
same,Activity,Rhabditis sp. [39],Active
same,MIC50,Heterodera schachtii [4],2100 µg/mL
same,Activity,Rhabditis sp. [40],0%
same,Activity,Rhabditis sp. [41],32%
same,MIC50,Pratylenchus penetrans [23],49800 µg/mL
same,MIC50,Meloidogyne incognita [5],57900 µg/mL
same,Activity,Rhabditis sp. [42],Active
same,MIC50,Rhabditis sp. [29],inactive
same,MIC50,Meloidogyne incognita [6],300 µg/mL
same,MIC50,Pratylenchus penetrans [34],4800 µg/mL
same,MIC50,Pratylenchus penetrans [36],3300 µg/mL
